Consider five compounds from patent US20230118497A1, “PYRAZOLE-CONTAINING POLYCYCLIC DERIVATIVE INHIBITOR, PREPARATION METHOD THEREFOR AND APPLICATION THEREOF” (Shanghai Hansoh Biomedical Co., Ltd., priority 2019, published 2023).

Data set [1] has as its target T1, CYP450 enzyme isoform 3A4 (Homo sapiens, UniProt P08684).
T1 construct: single-point method using human liver microsome incubation system; from tissue; host or cells: human liver microsomes
The data set can be described thus: CYP enzyme single-point inhibition assay, 3A4. Format: in vitro ADME. Particulars: human liver microsome, single-point method. The procedure: (§1) Test Example 7. CYP Enzyme Single-Point Inhibition Assay
(§2) The inhibition of the compounds on CYP450 enzyme isoformwas rapidly predicted by single-point method using human liver microsome incubation system.
(§3) 2.5 mM NADPH: 4.165 mg of NADPH (reduced nicotinamide adenine dinucleotide phosphate) was weighed, followed by addition of 100 mM phosphate buffer to 2 mL. 0.25 mg/mL microsome solution: 4 mL of 100 mM phosphate buffer was added to 50 μL of 20 mg/mL microsome solution and mixed well.
(§4) The test compound of the Example was weighed, diluted to 10 mM with DMSO and then to 100 μM with 100 mM phosphate buffer.
(§5) 1. 40 μL of liver microsome, 10 μL of substrate and 10 μL of the test compound were added to a 96-well plate and pre-incubated for 3 min.
(§6) 2. 40 μL of NADPH was added.
(§7) 3. 300 μL of acetonitrile stop solution containing internal standard was added at 20 min.
(§8) 4. The sample was centrifuged and injected.

Data set [2] can be described thus: Metabolic stability in liver microsome (human). It counts as in vitro ADME. The conditions noted are these: human liver microsome 0.5 mg/mL, compound 1 μM; for t1/2 / half-life at 1 μM: NADPH/UDPGA; for half-life at 1 μM: liver microsomes. The protocol: Test Example 5. Assay of Metabolic Stability in Liver Microsome
The objective of the experiment is to determine the stability of the compounds of the Examples in liver microsome of mouse, rat, dog and human.
Formulation of the working solution of the compound: The stock solution of the compound was added to phosphate buffer, and the final concentration was 20 μM.
Liver microsome was diluted with 100 mM phosphate buffer to obtain a final concentration of 0.625 mg/mL.
NADPH (reduced nicotinamide adenine dinucleotide phosphate) and UDPGA (uridine diphosphate glucuronic acid) were weighed respectively, followed by addition of 100 mM phosphate buffer. The final concentrations were 20 mM.
1 mg of Alamethicin was weighed, to which 200 μL of DMSO was added to obtain a 5 mg/mL solution. The solution was diluted with phosphate buffer to obtain a final concentration of 50 μg/mL.
2.5 Formulation of the reaction stop solution Stop solution: Cold acetonitrile containing 100 ng/mL labetalol hydrochloride and 400 ng/mL tolbutamide as internal standards.
400 μL of the prepared liver microsome, 25 μL of the working solution of the compound and 25 μL of Alamethicin were added to a 96-well plate successively, which was then pre-incubated at 37° C. for 10 min. 50 μL of the prepared NADPH/UDPGA was added to initiate the reaction, and the plate was incubated at 37° C. The total volume of the reaction system was 500 μL. The final contents of the components were as follows: […]

Data set [3] deals with T2, CYP450 enzyme isoform 2C9 (Homo sapiens, UniProt P11712).
T2 construct: single-point method using human liver microsome incubation system; from tissue; host or cells: human liver microsomes
The experiment in a line: CYP enzyme single-point inhibition assay, 2C9. Format: in vitro ADME. Particulars: human liver microsome, single-point method. The protocol: as §1, §2, §3, §4, §5, §6, §7, §8

Another data set addresses T3, hERG potassium channel (Homo sapiens, UniProt Q12809).
T3 construct: expressed in transfected cells; host or cells: CHO
The data set can be described thus: hERG potassium channel inhibition activity assay (Qpatch, CHO-hERG cells). It counts as cell-based. Particulars: Qpatch whole-cell, highest test concentration 40 μM. The protocol: Test Example 8. hERG Potassium Channel Inhibition Activity Assay
7.1.1 CHO-hERG cells were cultured in a 175 cm^2 culture flask. After the cell density reached 60-80%, the culture solution was removed. The cells were washed with 7 mL of PBS once, and dissociated with 3 mL of Detachin.
7.1.2 After completion of dissociation, the cells were neutralized with 7 mL of culture solution. The solution was centrifuged, and the supernate was removed. The cells were resuspended in 5 mL of culture solution. The cell indensity is ensured as 2˜5×10^6/mL.
Single cell sealing impedance and formation of whole-cell mode were automatically performed by Qpatch instrument. After obtaining the whole-cell recording mode, the cell was clamped at −80 mV. The cell first underwent pre-voltage of −50 mV for 50 msec, then underwent depolarization stimulation at +40 mV for 5 sec, and then underwent repolarization at −50 mV for 5 sec, and then the voltage returned to −80 mV The cell underwent the stimulation at the voltage every 15 sec. The data were recorded for 2 min, then extracellular fluid was administrated, and then the data were recorded for 5 min. Then, the administration process begun. The concentration of the test compound started from the lowest concentration, and each test concentration was administrated for 2.5 min. At least three cells (n≥3) were tested for each concentration.
4.1 20 mM mother liquor of the compound was diluted with extracellular fluid. […] of extracellular fluid was added to 5 μL of 20 mM mother liquor of the compound to obtain a concentration of 40 μM (500-fold dilution). The solution was subjected to a 3-fold serial dilution with extracellular fluid containing 0.2% DMSO to obtain a required final concentration.
This concentration of DMSO had no effect on hERG potassium channel.
The experimental data was analyzed by XLFit software.

A further data set deals with BALB/c mice. The data set can be described thus: Taste sensitivity assay in BALB/c mice (quinine solution intake). The conditions noted are these: 30 mpk; for Solution consumption of single mouse, Quinine solution: 3 mmol/L quinine hydrochloride, 30 min; for Dysgeusia rate: quinine solution vs solvent groups (20% HP-B-CD). Format: in vivo. The protocol: Test Example 9. Taste Sensitivity Assay in BALB/c Mice
In this assay, compounds with less toxic and side effects on animal taste were screened by quinine bitter solution experiment.
BALB/c mice, 6 to 8 weeks old, ♂, purchased from Shanghai SIPPR-BK Laboratory Animal Co., Ltd.
BALB/c mice were randomly grouped according to body weight, and were deprived of water 12 to 16 hours before administration with no fasting.
An appropriate amount of quinine monohydrochloride dihydrate was weighed and formulated into an aqueous solution quinine hydrochloride (concentration: 3 mmol/L) with ultrapure water for later use.
An appropriate amount of the test compound was weighed and formulated into the target concentration with the corresponding solvent according to the experimental design for later use.
Administration and fasting: On the day of the experiment, the animals were weighed and fasted, bedding was changed, and the compounds were administered according to the experimental design.
1. The corresponding clean mouse drinking bottle was rinsed 2 to 3 times with ultrapure water and the formulated 3 mmol/L aqueous solution of quinine hydrochloriderespectively. The bottle was filled and weighed, and the weight was recorded as Wi0.
2. According to the experimental design, a certain period after administration, the filled bottle was gently placed in the corresponding mouse cage, and the timing was started. After 30 min, the bottle was gently taken out and weighed, and the weight was recorded as Wi30.
3. Calculation of solution consumption of animals in each group: ΔWW(g)=[…]; calculation of solution consumption of single mouse: ΔpWW(g)=ΔWW/N, N is the number of animals in each group.
4. Dysgeusia rate=(ΔpWW of the group in which the drinking water was the aqueous solution of quinine hydrochlorideand the test compound was administered at the same time −ΔpWW of the group in which the drinking water was aqueous solution of quinine hydrochlorideand the solvent control was administered at the same time)/(ΔpWW of the group in which the drinking water was ultrapure water and the solvent control was administered at the same time −ΔpWW of the group in which the drinking water was aqueous solution of quinine hydrochloride and the solvent control was administered at the same time)×100%. Data processing was performed with software such as Excel.

SMILES strings stand for the structures. Where two headings read alike, the source gives them in different places.

T2 sequence (P11712 whole entry, canonical isoform): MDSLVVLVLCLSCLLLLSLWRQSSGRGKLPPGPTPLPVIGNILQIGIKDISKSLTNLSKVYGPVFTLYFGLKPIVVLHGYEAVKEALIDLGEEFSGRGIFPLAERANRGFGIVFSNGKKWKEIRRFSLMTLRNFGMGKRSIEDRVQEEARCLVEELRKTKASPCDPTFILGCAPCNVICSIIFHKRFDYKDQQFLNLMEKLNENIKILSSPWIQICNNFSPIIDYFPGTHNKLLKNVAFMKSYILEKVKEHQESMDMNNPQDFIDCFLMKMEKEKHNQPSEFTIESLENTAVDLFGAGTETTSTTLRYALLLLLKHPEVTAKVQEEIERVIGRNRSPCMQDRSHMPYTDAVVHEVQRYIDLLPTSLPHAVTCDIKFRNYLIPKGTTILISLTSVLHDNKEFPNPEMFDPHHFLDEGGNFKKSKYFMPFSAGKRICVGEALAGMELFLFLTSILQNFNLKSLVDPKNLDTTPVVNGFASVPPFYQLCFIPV
T3 sequence (Q12809 whole entry): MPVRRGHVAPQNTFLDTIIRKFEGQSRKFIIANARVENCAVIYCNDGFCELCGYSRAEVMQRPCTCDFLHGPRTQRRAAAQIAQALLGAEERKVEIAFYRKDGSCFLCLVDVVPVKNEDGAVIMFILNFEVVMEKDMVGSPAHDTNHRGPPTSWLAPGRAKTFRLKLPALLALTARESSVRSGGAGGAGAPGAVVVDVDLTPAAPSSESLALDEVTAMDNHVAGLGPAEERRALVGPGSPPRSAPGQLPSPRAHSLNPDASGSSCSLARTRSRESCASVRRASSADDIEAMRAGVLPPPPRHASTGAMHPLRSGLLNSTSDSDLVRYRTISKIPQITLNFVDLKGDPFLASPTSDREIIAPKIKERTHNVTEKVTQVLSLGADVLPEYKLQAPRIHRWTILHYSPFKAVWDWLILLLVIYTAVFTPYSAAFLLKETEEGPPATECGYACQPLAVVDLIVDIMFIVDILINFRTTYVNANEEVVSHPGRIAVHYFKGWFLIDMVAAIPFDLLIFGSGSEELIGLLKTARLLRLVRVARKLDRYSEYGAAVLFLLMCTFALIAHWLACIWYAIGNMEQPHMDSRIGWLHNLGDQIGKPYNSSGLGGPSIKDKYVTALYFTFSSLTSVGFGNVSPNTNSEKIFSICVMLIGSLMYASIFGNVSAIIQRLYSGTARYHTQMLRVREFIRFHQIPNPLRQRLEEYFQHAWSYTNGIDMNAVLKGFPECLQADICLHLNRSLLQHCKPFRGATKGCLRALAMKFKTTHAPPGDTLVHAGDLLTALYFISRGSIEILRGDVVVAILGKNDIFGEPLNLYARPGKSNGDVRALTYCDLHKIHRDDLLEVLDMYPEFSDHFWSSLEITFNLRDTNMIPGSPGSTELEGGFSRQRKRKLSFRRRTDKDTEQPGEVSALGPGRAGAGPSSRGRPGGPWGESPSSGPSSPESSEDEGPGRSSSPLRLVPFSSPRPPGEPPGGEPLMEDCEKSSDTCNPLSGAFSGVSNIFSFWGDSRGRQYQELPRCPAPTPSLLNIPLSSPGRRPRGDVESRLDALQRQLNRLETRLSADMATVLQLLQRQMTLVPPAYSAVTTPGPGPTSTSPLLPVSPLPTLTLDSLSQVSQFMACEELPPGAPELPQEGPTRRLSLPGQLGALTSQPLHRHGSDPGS
T1 sequence (P08684 whole entry, canonical isoform): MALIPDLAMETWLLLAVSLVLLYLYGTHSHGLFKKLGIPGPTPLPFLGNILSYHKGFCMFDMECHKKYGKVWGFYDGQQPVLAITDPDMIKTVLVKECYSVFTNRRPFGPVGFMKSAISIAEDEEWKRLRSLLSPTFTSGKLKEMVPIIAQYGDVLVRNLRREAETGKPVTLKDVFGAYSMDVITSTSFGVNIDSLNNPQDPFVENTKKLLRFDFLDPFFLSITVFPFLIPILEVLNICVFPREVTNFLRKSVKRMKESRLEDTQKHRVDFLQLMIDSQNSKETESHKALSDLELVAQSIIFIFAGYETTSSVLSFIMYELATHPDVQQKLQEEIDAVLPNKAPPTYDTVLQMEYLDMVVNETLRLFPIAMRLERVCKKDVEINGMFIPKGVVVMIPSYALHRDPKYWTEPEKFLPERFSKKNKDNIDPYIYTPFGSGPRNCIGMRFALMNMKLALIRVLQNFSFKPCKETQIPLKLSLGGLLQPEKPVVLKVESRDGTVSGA

In the case of `CCc1cc2n(CC(=O)Nc3ccc(F)cn3)c(=O)c3ccc(C(F)(F)F)nc3n2n1` [Example 34, 2-(2-Ethyl-5-oxo-8-(trifluoromethyl)pyrazolo[1,5-a]pyrido[3,2-e]pyrimidin-4(5H)-yl)-N-(5-fluoropyridin-2-yl)acetamide], the IC50 in data set [1] (3A4-M, read-out: 3A4-M IC50) was more than 100 µM; in data set [1] (3A4-T, read-out: 3A4-T IC50), more than 100 µM; in data set [3] it was more than 100 µM. Also, the “Remaining (%, 60 min)” value in data set [2] is on record as 113.9%. In addition, in data set [2], the t1/2 result is “∞”.

In the case of `O=C(Cn1c(=O)c2ccc(C(F)(F)F)nc2n2nc(Br)cc12)Nc1ccc(F)cn1` [Example 61-A, 2-(2-bromo-5-oxo-8-(trifluoromethyl)pyrazolo[1,5-a]pyrido[3,2-e]pyrimidin-4(5H)-yl)-N-(5-fluoropyridin-2-yl)acetamide], the IC50 in data set [1] (3A4-M, read-out: 3A4-M IC50) was more than 100 µM; in data set [1] (3A4-T, read-out: 3A4-T IC50), more than 100 µM; on hERG potassium channel, more than 10 µM; in data set [3], more than 100 µM. In addition, the “Remaining (%, 60 min)” value in data set [2] worked out at 100.4%. For the same compound, the t1/2 entry in data set [2] is recorded as “∞”. Also, in the data set on BALB/c mice, the “Solution consumption of single mouse, Quinine solution” value (shortened to “Solution consumption of single mouse”) is listed as 0.048 g. In addition, the Dysgeusia rate in the data set with BALB/c mice is −3.77%.

For the compound `N#Cc1cc2n(CC(=O)Nc3ccc(F)cn3)c(=O)c3ccc(C(F)(F)F)nc3n2n1` [Example 68, 2-(2-Cyano-5-oxo-8-(trifluoromethyl)pyrazolo[1,5-a]pyrido[3,2-e]pyrimidin-4(5H)-yl)-N-(5-fluoropyridin-2-yl)acetamide], the IC50 is more than 100 µM in data set [1] (3A4-M, read-out: 3A4-M IC50); more than 100 µM in data set [1] (3A4-T, read-out: 3A4-T IC50); 18.4 µM at hERG potassium channel; more than 100 µM in data set [3]. The “Remaining (%, 60 min)” value in data set [2] worked out at 101.2%. This compound displayed a half-life at 1 μM in data set [2] of 23.4 h. Also, the “Solution consumption of single mouse” value with BALB/c mice worked out at 0.056 g. In the data set on BALB/c mice, the Dysgeusia rate is recorded as −2.26%.

Take `O=C(Cn1c(=O)c2ccc(C(F)(F)F)nc2n2nccc12)Nc1ccc(F)cn1` [Example 78, N-(5-Fluoropyridin-2-yl)-2-(5-oxo-8-(trifluoromethyl)pyrazolo[1,5-a]pyrido[3,2-e]pyrimidin-4(5H)-yl)acetamide]: the IC50 in data set [1] (3A4-M, read-out: 3A4-M IC50) was more than 100 µM; in data set [1] (3A4-T, read-out: 3A4-T IC50), more than 100 µM; against hERG potassium channel, more than 10 µM; in data set [3], more than 100 µM. For the same compound, the “Remaining (%, 60 min)” value in data set [2] was determined as 97.5%. The compound also showed a half-life at 1 μM in data set [2] of 14.7 h. For the same compound, in the data set with BALB/c mice, the “Solution consumption of single mouse” value was 0.016 g. Besides, the Dysgeusia rate in the data set with BALB/c mice is listed as −9.81%.

At hERG potassium channel, `N#Cc1cnn2c3nc(C(F)(F)F)ccc3c(=O)n(CC(=O)Nc3ccc(F)cn3)c12` [Example 80, 2-(3-Cyano-5-oxo-8-(trifluoromethyl)pyrazolo[1,5-a]pyrido[3,2-e]pyrimidin-4(5H)-yl)-N-(5-fluoropyridin-2-yl)acetamide] showed a 50% inhibitory concentration (IC50) of more than 20 µM.
